{"source": "ChEMBL document CHEMBL1151650", "about": "“New Furostanol Glycosides from Asparagus plumosus Leaves” (J Nat Prod, 1985)", "system": "Biomphalaria glabrata", "assay": "Toxic molluscicidal activity against Biomphalaria glabrata", "format": "ADME, organism-based", "details": "in vivo", "data": [{"molecule": "CO[C@]1(CC[C@H](C)CO[C@@H]2O[C@H](CO)[C@@H](O)[C@H](O)[C@H]2O)O[C@H]2C[C@H]3[C@@H]4CC=C5C[C@@H](O[C@@H]6O[C@H](CO)[C@@H](O)[C@H](O[C@@H]7O[C@@H](C)[C@H](O)[C@@H](O)[C@H]7O)[C@H]6O[C@@H]6O[C@@H](C)[C@H](O)[C@@H](O)[C@H]6O)CC[C@]5(C)[C@H]4CC[C@]3(C)[C@H]2[C@@H]1C", "values": [{"measurement": "Activity", "result": "Non-toxic"}]}, {"molecule": "C[C@@H](CC[C@@]1(O)O[C@H]2C[C@H]3[C@@H]4CC=C5C[C@@H](O[C@@H]6O[C@H](CO)[C@@H](O)[C@H](O[C@@H]7O[C@@H](C)[C@H](O)[C@@H](O)[C@H]7O)[C@H]6O[C@@H]6O[C@@H](C)[C@H](O)[C@@H](O)[C@H]6O)CC[C@]5(C)[C@H]4CC[C@]3(C)[C@H]2[C@@H]1C)CO[C@@H]1O[C@H](CO)[C@@H](O)[C@H](O)[C@H]1O", "values": [{"measurement": "Activity", "result": "Non-toxic"}]}]}
